Laboratory results published in patent publication US10683273B2, “Compounds as DNA probes, methods and applications thereof” (JAWAHARLAL NEHRU CENTRE FOR ADVANCED SCIENTIFIC RESEARCH, priority 2015, dated 2020).

What was measured:
(D1)mix = assay: UV-melting (UV-Tm) of DNA duplex with probe; assay type: binding; settings: (D1)mix with QCy-DT vs duplex alone
Procedure: (§1) The UV-vis absorption and emission spectra are recorded on Agilent Technologies Cary series UV-vis-NIR absorbance and Cary eclipse fluorescence spectrophotometers, respectively. Thermal denaturation (UV-melting) studies are carried out on Cary 5000 UV-vis-NIR spectrophotometer equipped with Cary temperature controller in the range of 10° C. to 90° C. with a ramp rate of 1° C./min. The variable temperature/wavelength mode is used. Absorption is monitored at 260 nm with regular 5° C. intervals. Melting temperatures (Tm) of DNA samples are calculated from the first derivatives of the absorption vs. temperature curves (thermal denaturation or melting curves) obtained by monitoring at 260 nm.
(§2) To understand the effect of QCy-DT binding to DNA on the thermal stability of DNA, temperature-dependent UV-melting studies (UV-Tm) is performed on different [QCy-DT+DNA] complexes. […] Therefore, the binding affinity, fluorescence quantum yield, and UV-Tm data validated the preferential recognition of AT-rich DNA by QCy-DT probe compared to GC-rich DNA.

(A-T)20 = assay: UV-melting (UV-Tm) of DNA duplex with probe; assay type: binding; settings: (A-T)20 with QCy-DT vs duplex alone
Procedure: as §1, §2

d(ATAT)5 [1] = assay: UV-melting (UV-Tm) of DNA duplex with probe; assay type: binding; settings: d(ATAT)5 with QCy-DT vs duplex alone
Procedure: as §1, §2

Drew AT = assay: UV-melting (UV-Tm) of DNA duplex with probe; assay type: binding; settings: Drew AT with QCy-DT vs duplex alone
Procedure: as §1, §2

HeLa cells = assay: Fluorescence study in fixed cells; assay type: cell-based; settings: 0.5 and 1 μM, Hoechst as control
Procedure: HeLa cells are grown on the cover slip for about 24 hours in DMEM medium supplemented with 10% fetal bovine serum at about 37° C. in a humidified atmosphere containing 5% CO2 till 80% confluency is achieved. Then cells are fixed with 4% paraformaldehyde in PBS for 10 min. After rinsing twice with PBS, HeLa cells are treated separately with probe QCy-DT at various concentrations (0.5 μM and 1 μM) for 10 min at room temperature. Subsequently, cover slips are incubated with Hoechst 33258 at 10 μg/mL for nuclear staining. Fluorescence images are taken by Carl Zeiss Laser Scanning Microscope (LSM510 META).
(§3) In order to check its permeability, cellular uptake studies are carried out in live and fixed conditions of MCF-7 and HeLa cells, respectively. First, MCF-7 cells are incubated with probe QCy-DT (0.5 and 1 μM) without fixing, and live cell imaging is conducted using Carl Zeiss fluorescence microscope as described above. […] Next, HeLa cells are fixed and incubated with QCy-DT (0.5 and 1 μM) along with Hoechst as the control nuclear staining dye. […] Therefore, staining results obtained with live and fixed cells confirmed high cell permeability, efficiency (low staining concentration of 1 μM), and preferential targeting of cell nuclear DNA.

MCF-7 cells = assay: Fluorescence study in live cells; assay type: cell-based; settings: live MCF-7 cells, 0.5 and 1 μM, 60 min
Procedure: MCF-7 cells are propagated on 20 mm cover slips in a 6-well plate in DMEM medium supplemented with 10% fetal bovine serum at about 37° C. in a humidified atmosphere containing 5% CO2 till 80% confluency is achieved. Cells are incubated for about 60 min with probe QCy-DT (resuspended in Mili-Q water) at various concentrations (0.5 μM and 1 μM) in a humidified CO2 incubator at about 37° C. Milli-Q water is used as a vehicle control. Following the treatment, fluorescence microscopy is performed using Carl Zeiss AXIO Imager Z1 and the software used for image capturing is AxioVision Rel. 4.8.
as §3

d(ATAT)5 [2] = assay: Switch-on NIR-fluorescence enhancement with DNA; assay type: binding
Procedure: All the chemicals, reagents, single-stranded oligos (dA20, dT20, dG20, dC20), self-complementary oligos {d(ATAT)5, (D1)mix, Drew-AT, Calf-Thymus DNA (CT-DNA), (DM1, DM2, DM3, DM4, DM5, DM6 and DM7)}, RNA, were purchased from Sigma-Aldrich. ^1H and ^13C NMR spectra were recorded on a Bruker AV-400 MHz spectrometer with chemical shifts reported as parts per million (ppm) (in DMSO-d6, tetramethylsilane as an internal standard) at 20° C. UV-vis absorption and emission spectra were measured in quartz cuvettes of 1 cm path length. High resolution mass spectra (HRMS) were obtained on Agilent Technologies 6538 UHD Accurate-Mass Q-TOF LC/MS spectrometer. All biophysical studies (UV-vis, fluorescence and Cirular dichroism) are carried out at the concentration 0-5 μM of probe, volume=500 μL, temperature=25° C. and time of incubation=2 minutes. […]
The UV-vis absorption and emission spectra are recorded on Agilent Technologies Cary series UV-vis-NIR absorbance and Cary eclipse fluorescence spectrophotometers, respectively. […] Absorption is monitored at 260 nm with regular 5° C. intervals. Melting temperatures (Tm) of DNA samples are calculated from the first derivatives of the absorption vs. temperature curves (thermal denaturation or melting curves) obtained by monitoring at 260 nm. […]

C[n+]1c(/C=C/c2ccc(O)c(/C=C/c3sc4ccccc4[n+]3C)c2)sc2ccccc21 [QCy-DT, quinone cyanine-dithiazole]
ΔTm ((D1)mix): 2.5 °C | ΔTm ((A-T)20): 6.2 °C | ΔTm (d(ATAT)5 [1]): 3.5 °C | ΔTm (Drew AT): 4.2 °C | nuclear staining (HeLa cells): selective staining of the cell nucleus, and remarkable co-localization with Hoechst dye | cellular uptake / nuclear staining (MCF-7 cells): selective staining of the cell nucleus | fluorescence enhancement (d(ATAT)5 [2]): ~54 fold
